Measurements as given in article PMC11229374, “Unlocking the potential of protein-derived peptides to target G-quadruplex DNA: from recognition to anticancer activity” (Nucleic Acids Research, 2024).
Values joined by “and” are separate entries in the source; they are usually repeats but may differ in a detail not shown here. Equal values may be shown once.

How the values were obtained:
c-KIT2 G4 [1] = experiment: CD melting, thermal stabilization of c-KIT2 G4; assay type: binding, human; settings: CD melting at 264 nm, 5 mM KH2PO4/K2HPO4 pH 7.0, 20 mM KCl, average of three
Excerpt: The buffer baseline was subtracted from each spectrum.

c-KIT1 G4 = experiment: Microscale thermophoresis (MST) binding to c-KIT1 G4; design: species or system human; settings: 25°C, 20 nM FITC-labelled peptide, DNA serial dilution, 5 mM KH2PO4/K2HPO4 pH 7.0, 20 mM KCl, 0.1% Tween, 5% DMSO
Method: (§1) MST experiments were conducted using a Monolith NT.115 instrument (NanoTemper Technologies, Munich, Germany) at 25°C with medium MST power settings. […] DNA samples were also diluted using the same buffer supplemented with 0.1% Tween. During MST experiments, the concentration of the labelled peptide was kept constant at 20 nM, while a serial dilution of the investigated DNA molecules (ranging from 10 or 20 μM) was prepared and mixed with the peptide solution in a 1:1 volume ratio. All the samples, with a final concentration of 5% DMSO, were loaded into standard capillaries (NanoTemper Technologies) for MST measurements. Data analysis was carried out using the MO.Affinity Analysis (v2.3) software provided with the instrument.

c-KIT2 G4 [2] = experiment: Microscale thermophoresis (MST) binding to c-KIT2 G4; design: species or system human; settings: 25°C, 20 nM FITC-labelled peptide, DNA serial dilution, 5 mM KH2PO4/K2HPO4 pH 7.0, 20 mM KCl, 0.1% Tween, 5% DMSO
Method: as §1

c-MYC G4 = experiment: Microscale thermophoresis (MST) binding to c-MYC G4; design: species or system human; settings: 25°C, 20 nM FITC-labelled peptide, DNA serial dilution, 5 mM KH2PO4/K2HPO4 pH 7.0, 20 mM KCl, 0.1% Tween, 5% DMSO
Method: as §1

HER2 G4 [3] = experiment: Microscale thermophoresis (MST) binding to HER2 G4; design: species or system human; settings: 25°C, 20 nM FITC-labelled peptide, DNA serial dilution, 5 mM KH2PO4/K2HPO4 pH 7.0, 20 mM KCl, 0.1% Tween, 5% DMSO
Method: as §1

HT-FANA G4 = experiment: Microscale thermophoresis (MST) binding to HT-FANA G4; design: species or system human; settings: 25°C, 20 nM FITC-labelled peptide, DNA serial dilution, 5 mM KH2PO4/K2HPO4 pH 7.0, 20 mM KCl, 0.1% Tween, 5% DMSO
Method: as §1

HRAS1 G4 = experiment: Microscale thermophoresis (MST) binding to HRAS1 G4; design: species or system human; settings: 25°C, 20 nM FITC-labelled peptide, same buffer, n.d. = not determined due to undetectable binding
Method: as §1

LWDLN1 G4 = experiment: Microscale thermophoresis (MST) binding to LWDLN1 G4; settings: 25°C, 20 nM FITC-labelled peptide, same buffer, n.d. = not determined due to undetectable binding
Method: as §1

BCL-2 G4 = experiment: Microscale thermophoresis (MST) binding to BCL-2 G4; design: species or system human; settings: 25°C, 20 nM FITC-labelled peptide, DNA serial dilution, 5 mM KH2PO4/K2HPO4 pH 7.0, 20 mM KCl, 0.1% Tween, 5% DMSO
Method: as §1

HT1 G4 = experiment: Microscale thermophoresis (MST) binding to HT1 G4; design: species or system human; settings: 25°C, 20 nM FITC-labelled peptide, DNA serial dilution, 5 mM KH2PO4/K2HPO4 pH 7.0, 20 mM KCl, 0.1% Tween, 5% DMSO
Method: as §1

HT2 G4 = experiment: Microscale thermophoresis (MST) binding to HT2 G4; design: species or system human; settings: 25°C, 20 nM FITC-labelled peptide, DNA serial dilution, 5 mM KH2PO4/K2HPO4 pH 7.0, 20 mM KCl, 0.1% Tween, 5% DMSO
Method: as §1

VEGFR-17T G4 = experiment: Microscale thermophoresis (MST) binding to VEGFR-17T G4; design: species or system human; settings: 25°C, 20 nM FITC-labelled peptide, same buffer, n.d. = not determined due to undetectable binding
Method: as §1

ds12 duplex = experiment: Microscale thermophoresis (MST) binding to ds12 duplex; settings: 25°C, 20 nM FITC-labelled peptide, same buffer, n.d. = not determined due to undetectable binding
Method: as §1

c-KIT2 G4 [4] = experiment: Isothermal titration calorimetry (ITC) with c-KIT2 G4; assay type: binding, human; settings: ITC at 25°C, triplicate
Method: (§2) ITC experiments were conducted at 25°C using a nano-ITC Low Volume calorimeter (TA instruments, Lindon, UT, USA). DNA and peptide solutions were prepared using the same batch of buffer (5 mM KH2PO4/K2HPO4 buffer containing 20 mM KCl, pH 7.0) to prevent differences in buffer composition and pH. Each titration consisted of 25 injections of a 2 μl peptide solution (280–400 μM) sequentially injected using a computer-controlled 50 μl syringe, into the calorimetric vessel (190 μl) containing the oligonucleotide (16–20 μM). A spacing of 300 s between each injection was applied to allow the system to reach the equilibrium. The heat generated by peptide dilution was assessed in a control experiment by injecting the peptide solution into the buffer (Supplementary Figure S30). All measurements were performed in triplicate. Subsequently, the interaction heat for each injection was calculated considering the correction for the heat of peptide dilution. The corrected heat values were plotted as a function of the molar ratio to provide binding isotherms. The isotherms were fitted with a multiple-sites binding model using the NanoAnalyze software (TA instruments) provided with the instrument. This analysis provided the equilibrium binding constant (Ka), binding enthalpy (ΔH°), and stoichiometry of interaction (n). The equilibrium dissociation constant (Kd), Gibbs free-energy change and entropy change were determined using the following relationships: Kd = 1/Ka, ΔG° = -RT ln Ka (R = 8.314 J mol^−1 K^−1, T = 298.15 K), and TΔS° = ΔH° – ΔG°.

HER2 G4 [5] = experiment: Isothermal titration calorimetry (ITC) with HER2 G4; assay type: binding, human; settings: ITC at 25°C, triplicate
Method: as §2, with “The isotherms were fitted with a multiple-sites binding model using the NanoAnalyze software (TA instruments) provided with the instrument. This analysis provided the equilibrium binding constant (Ka), binding enthalpy (ΔH°), and stoichiometry of interaction (n).” left out

U2OS cells = experiment: Viability assay (crystal violet), U2OS; assay type: cell-based; settings: 72 h treatment, unconjugated peptides
Method: U2OS, HCT116 and MDA-MB-231 cells were purchased from the ATCC and grown in Dulbecco modified Eagle's medium (DMEM; EuroClone, Milan, Italy; ECM0728L) supplemented with 10% Fetal Bovine Serum (FBS, ThermoFisher Scientific/Gibco, Waltham, MA, USA; 10270-106), 2 mM L-glutamine and antibiotics in a humidified incubator at 37°C with 5% CO2 and atmospheric O2 concentration. Cell lines were authenticated and tested to be mycoplasma-free.
U2OS, HCT116, and MDA-MB-231 cells were seeded in 24-well plates at a density of 1 × 10^4, 20 × 10^3 and 12 × 10^3 for each well, respectively. After 24 h, cells were treated with the indicated peptides and incubated at 37°C for additional 72 h. Upon treatment completion, cell medium was removed, the wells were washed twice in phosphate-buffered saline (PBS) and fixed with 4% formaldehyde for 15 min at room temperature (RT). After washing, 500 μl of crystal violet staining solution (Sigma-Aldrich, St. Louis, MO, USA) was added to each well and incubated for 30 min at RT. Finally, the plates were rinsed twice with water, air-dried and cell pellets were dissolved in 400 μl of a 10% aqueous solution of acetic acid. In total, 200 μl of each sample was transferred to a 96-well plate, and the optical density was measured at 570 nm (OD570) with an ELISA reader (Thermo Scientific, Waltham, MA, USA). The average absorbance in each condition was used to calculate the viability expressed as a percentage of treated vs untreated conditions (CTR).

## Ac-NHTGNSIRHRFRVYLSKRL-NH2 [Myb^397–415]
c-KIT2 G4 [1]; 2 μM DNA, 1 mol equiv peptide, 1°C/min, T1/2 DNA alone 59.5°C
  ΔT1/2 of c-KIT2 G4: 11.2 °C and 11.2 (±0.2) °C
c-KIT2 G4 [1]; 2 mol equiv of peptide with respect to G4, 2 μM DNA, T1/2 c-KIT2 alone 59.5°C
  ΔT1/2 of c-KIT2 G4: 17.3 (±0.2) °C
c-KIT1 G4
  Kd: 340 nM
c-KIT2 G4 [2]
  Kd: 130 nM
c-MYC G4
  Kd: 430 nM
HER2 G4 [3]
  Kd: 130 nM
HT-FANA G4
  Kd: 140 nM
HRAS1 G4
  Kd for binding to HRAS1 G4: negligible binding
LWDLN1 G4
  Kd for binding to LWDLN1 G4: negligible binding
BCL-2 G4
  Kd: 280 nM
HT1 G4
  Kd: 900 nM
HT2 G4
  Kd: 1180 nM
VEGFR-17T G4
  Kd for binding to VEGFR-17T G4: negligible binding
ds12 duplex
  Kd for binding to ds12 duplex: negligible
c-KIT2 G4 [4]; c-KIT2 G4 16–20 μM, peptide 280–400 μM, 5 mM KH2PO4/K2HPO4, 20 mM KCl, pH 7.0
  Ka: 5.0 × 10^6 M^−1 and 5.0 (±0.3) ×10^6 M^−1
c-KIT2 G4 [4]; c-KIT2 G4, Kd = 1/Ka
  Kd: 200 nM
HER2 G4 [5]; HER2 G4 16–20 μM, peptide 280–400 μM, 5 mM KH2PO4/K2HPO4, 20 mM KCl, pH 7.0
  Ka: 1.0 × 10^7 M^−1 and 1.0 (±0.1) ×10^7 M^−1
HER2 G4 [5]; HER2 G4, Kd = 1/Ka
  Kd: 100 nM
U2OS cells
  Impact on cancer cell viability, peptides in native form: unable to significantly impact cancer cells viability
